From EP4631959A2, “NOVEL MINIGASTRIN-DERIVED CHOLECYSTOKININ 2 RECEPTOR BINDING MOLECULES FOR IMAGING AND TARGETED RADIOTHERAPY” (priority 2022, dated 2024)
Starred links: 1 amine or outer side, 2 acyl side, 3 side chain; linkers in the order of their positions; H or OH if unused. Non-standard residues stand in square brackets, D forms with d. Residues, ends and D or L forms follow the SMILES beside them. *: point of attachment. X5 = O=C(O)CN1CCN(CC(=O)O)CCN([C@@H](CCC(=O)*)C(=O)O)CCN(CC(=O)O)CC1; X2 = O=C(O)CN1CCN(CC(=O)O)CCN([C@H](CCC(=O)*)C(=O)O)CCN(CC(=O)O)CC1; Benzoyl(4-SiFtBu2) = CC(C)(C)[Si](F)(c1ccc(C(=O)*)cc1)C(C)(C)C; DOTA = O=C(O)CN1CCN(CC(=O)O)CCN(CC(=O)*)CCN(CC(=O)O)CC1; d(γGlu) = O=C(O)[C@@H](CCC(=O)[*:2])N[*:1]; Bip = N[C@@H](Cc1ccc(-c2ccccc2)cc1)C(=O)O; 1Nal = N[C@@H](Cc1cccc2ccccc12)C(=O)O; 2Nal = N[C@@H](Cc1ccc2ccccc2c1)C(=O)O; PEG5 = NCCOCCOCCOCCOCCOCCC(=O)O; NMeNle = CCCC[C@H](NC)C(=O)O; PEG4 = NCCOCCOCCOCCOCCC(=O)O; Nle = CCCC[C@H](N)C(=O)O; Dap = NC[C@H](N)C(=O)O

target: T1, CCK-2R (Rattus norvegicus, UniProt P30553); test: Determination of IC50: CCK-2R affinity on AR4-2J cells, competition with [^177Lu]Lu-DOTA-PP-F11N; format: binding; conditions: not given
T1 construct: The CCK-2R expressing rat pancreatic tumor cells AR4-2J; host or cells: AR4-2J rat pancreatic tumor cells
T1 sequence (P30553 1-452): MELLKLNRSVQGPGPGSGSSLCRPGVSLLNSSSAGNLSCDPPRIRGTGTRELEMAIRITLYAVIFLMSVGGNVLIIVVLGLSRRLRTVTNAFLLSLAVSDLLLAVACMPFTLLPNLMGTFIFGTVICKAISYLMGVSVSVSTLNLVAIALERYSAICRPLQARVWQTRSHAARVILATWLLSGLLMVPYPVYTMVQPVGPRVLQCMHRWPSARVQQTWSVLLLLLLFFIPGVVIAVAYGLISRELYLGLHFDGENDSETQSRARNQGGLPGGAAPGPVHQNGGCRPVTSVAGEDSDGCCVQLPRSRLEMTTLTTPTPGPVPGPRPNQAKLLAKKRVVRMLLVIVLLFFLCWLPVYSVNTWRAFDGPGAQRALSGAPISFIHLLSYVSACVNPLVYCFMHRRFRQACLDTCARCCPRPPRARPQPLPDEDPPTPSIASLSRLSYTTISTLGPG
Description: AR4-2J cells were harvested 24 ± 2 h before the experiment and seeded in 24-well plates (2.0 × 10^5 cells in 1 mL/well). After removal of the nutrient medium (RPMI 1640, 5 mM L-Gln, 5 mL non-essential amino acids (100×), 10% FCS), the cells were washed once with 500 µL PBS. Thereafter, 200 µL nutrient medium (5% BSA, v/v) were added. Next, 25 µL per well of solutions containing either nutrient medium (5% BSA, v/v) as control or the respective compound in increasing concentration (10^-10 - 10^-4 M), were added with subsequent addition of 25 µL [^177Lu]Lu-DOTA-PP-F11N (0.3 pmol/well).
All experiments were performed in triplicate for each concentration. After 3 h incubation at 37 °C, the experiment was terminated by removal of the medium and consecutive rinsing with 300 µL PBS. The media of both steps were combined in one fraction and represent the amount of free radiolabeled reference. Afterwards, the cells were lysed with 300 µL of 1 M NaOH for at least 15 min and united with the 300 µL NaOH of the following washing step. Quantification of bound and free radiolabeled reference was accomplished in a γ-counter. IC50 determination for each conjugate was repeated twice.

Compound	IC50 [nM]
CCCC[C@H](NC(=O)[C@H](Cc1c[nH]c2ccccc12)NC(=O)CNC(=O)[C@H](Cc1ccc(O)cc1)NC(=O)[C@H](C)NC(=O)CC[C@@H](N)C(=O)O)C(=O)N[C@@H](CC(=O)O)C(=O)N[C@@H](CNC(=O)c1ccc([Si](F)(C(C)(C)C)C(C)(C)C)cc1)C(N)=O [CCK-48, H-γ-glu-Ala-Tyr-Gly-Trp-Nle-Asp-Dap(SiFA)-NH2] ({d(γGlu)}-AYGW[Nle]D[Dap](Benzoyl(4-SiFtBu2))-NH2)	> 10000
CCCC[C@H](NC(=O)[C@H](Cc1c[nH]c2ccccc12)NC(=O)CNC(=O)[C@H](Cc1ccc(O)cc1)NC(=O)[C@H](C)NC(=O)[C@@H](CCC(=O)O)NC(=O)[C@@H](CCC(=O)O)NC(=O)[C@@H](CCC(=O)O)NC(=O)[C@@H](CCC(=O)O)NC(=O)[C@@H](CCC(=O)O)NC(=O)[C@@H](CCC(=O)O)NC(=O)CN1CCN(CC(=O)O)CCN(CC(=O)O)CCN(CC(=O)O)CC1)C(=O)N[C@@H](CC(=O)O)C(=O)N[C@@H](Cc1ccccc1)C(N)=O [DOTA-PP-F11N, DOTA-glu^1-glu^2-glu^3-glu^4-glu^5-glu^6-Ala^7-Tyr^8-Gly^9-Trp^10-Nle^11-Asp^12-Phe^13-NH2, reference compound]	12.8 ± 2.8

same assay, conditions: AR4-2J cells; ^natGa-labeled; read-out: IC50 [nM] (n = 3), ^natGa-labeled

Compound	IC50 [nM]
CCCC[C@@H](C(=O)N[C@@H](CC(=O)O)C(=O)N[C@@H](Cc1cccc2ccccc12)C(N)=O)N(C)C(=O)[C@H](Cc1c[nH]c2ccccc12)NC(=O)CCOCCOCCOCCOCCNC(=O)CC[C@@H](NC(=O)CC[C@H](C(=O)O)N1CCN(CC(=O)O)CCN(CC(=O)O)CCN(CC(=O)O)CC1)C(=O)O [(R)-DOTAGA-CCK-66, (R)-DOTAGA-γ-glu-(PEG)3-Trp-(N-Me)Nle-Asp-1-Nal-NH2] ({X2-d(γGlu)-PEG4}-W[NMeNle]D[1Nal]-NH2)	16 ± 2.1
CCCC[C@@H](C(=O)N[C@@H](CC(=O)O)C(=O)N[C@@H](Cc1cccc2ccccc12)C(N)=O)N(C)C(=O)[C@H](Cc1c[nH]c2ccccc12)NC(=O)CCOCCOCCOCCOCCNC(=O)CC[C@@H](NC(=O)CC[C@@H](C(=O)O)N1CCN(CC(=O)O)CCN(CC(=O)O)CCN(CC(=O)O)CC1)C(=O)O [(S)-DOTAGA-CCK-66, (S)-DOTAGA-γ-glu-(PEG)3-Trp-(N-Me)Nle-Asp-1-Nal-NH2] ({X5-d(γGlu)-PEG4}-W[NMeNle]D[1Nal]-NH2)	17.9 ± 2.7

same assay, conditions: AR4-2J cells; ^natLu-labeled; read-out: IC50 [nM] (n = 3), ^natLu-labeled

Compound	IC50 [nM]
CCCC[C@@H](C(=O)N[C@@H](CC(=O)O)C(=O)N[C@@H](Cc1cccc2ccccc12)C(N)=O)N(C)C(=O)[C@H](Cc1c[nH]c2ccccc12)NC(=O)CNC(=O)CNC(=O)CNC(=O)CNC(=O)CN1CCN(CC(=O)O)CCN(CC(=O)O)CCN(CC(=O)O)CC1 [DOTA-CCK-55, DOTA-(Gly)4-Trp-(N-Me)Nle-Asp-1-Nal-NH2] ({DOTA}-GGGGW[NMeNle]D[1Nal]-NH2)	8.5 ± 1.2
CCCC[C@@H](C(=O)N[C@@H](CC(=O)O)C(=O)N[C@@H](Cc1cccc2ccccc12)C(N)=O)N(C)C(=O)[C@H](Cc1c[nH]c2ccccc12)NC(=O)CNC(=O)CN1CCN(CC(=O)O)CCN(CC(=O)O)CCN(CC(=O)O)CC1 [DOTA-CCK-58, DOTA-Gly-Trp-(N-Me)Nle-Asp-1-Nal-NH2] ({DOTA}-GW[NMeNle]D[1Nal]-NH2)	98.9 ± 8.4
CCCC[C@@H](C(=O)N[C@@H](CC(=O)O)C(=O)N[C@@H](Cc1cccc2ccccc12)C(N)=O)N(C)C(=O)[C@H](Cc1c[nH]c2ccccc12)NC(=O)CNC(=O)CNC(=O)[C@H](C)NC(=O)CNC(=O)CN1CCN(CC(=O)O)CCN(CC(=O)O)CCN(CC(=O)O)CC1 [DOTA-CCK-61, DOTA-Gly-Ala-(Gly)2-Trp-(N-Me)Nle-Asp-1-Nal-NH2] ({DOTA}-GAGGW[NMeNle]D[1Nal]-NH2)	9.7 ± 1.7

same assay, conditions: AR4-2J cells; references ^natLu-labeled, other peptides without chelator; read-out: IC50 [nM] (n = 3)

Compound	IC50 [nM]
CCCC[C@H](NC(=O)[C@H](Cc1c[nH]c2ccccc12)NC(=O)CNC(=O)[C@H](Cc1ccc(O)cc1)NC(=O)[C@H](C)NC(=O)CC[C@@H](N)C(=O)O)C(=O)N[C@@H](CC(=O)O)C(=O)N[C@@H](Cc1ccc(-c2ccccc2)cc1)C(N)=O [CCK-38, H-γ-glu-Ala-Tyr-Gly-Trp-Nle-Asp-Bip-NH2] ({d(γGlu)}-AYGW[Nle]D[Bip]-NH2)	> 1000
CSCC[C@H](NC(=O)[C@H](Cc1c[nH]c2ccccc12)NC(=O)CNC(=O)[C@H](Cc1ccc(O)cc1)NC(=O)[C@H](C)NC(=O)[C@@H](CCC(=O)O)NC(=O)[C@@H](CCC(=O)O)NC(=O)[C@@H](CCC(=O)O)NC(=O)[C@@H](CCC(=O)O)NC(=O)[C@@H](CCC(=O)O)NC(=O)[C@@H](CCC(=O)O)NC(=O)CN1CCN(CC(=O)O)CCN(CC(=O)O)CCN(CC(=O)O)CC1)C(=O)N[C@@H](CC(=O)O)C(=O)N[C@@H](Cc1ccccc1)C(N)=O [CP04, DOTA-glu^1-glu^2-glu^3-glu^4-glu^5-glu^6-Ala^7-Tyr^8-Gly^9-Trp^10-Met^11-Asp^12-Phe^13-NH2, reference compound]	11.2 ± 0.2
CCCC[C@@H](C(=O)N[C@@H](CC(=O)O)C(=O)N[C@@H](Cc1cccc2ccccc12)C(N)=O)N(C)C(=O)[C@H](Cc1c[nH]c2ccccc12)NC(=O)CNC(=O)[C@H](Cc1ccc(O)cc1)NC(=O)[C@H](C)NC(=O)CC[C@@H](NC(=O)CN1CCN(CC(=O)O)CCN(CC(=O)O)CCN(CC(=O)O)CC1)C(=O)O [DOTA-γ-MGS5, DOTA-γ-glu^6-Ala^7-Tyr^8-Gly^9-Trp^10-(N-Me)Nle^11-Asp^12-1-Nal^13-NH2, reference compound] ({DOTA-d(γGlu)}-AYGW[NMeNle]D[1Nal]-NH2)	4.9 ± 0.8
CCCC[C@@H](C(=O)N[C@@H](CC(=O)O)C(=O)N[C@@H](Cc1ccc2ccccc2c1)C(N)=O)N(C)C(=O)[C@@H](N)Cc1c[nH]c2ccccc12 [H-Trp-(N-Me)Nle-Asp-2-Nal-NH2] (H-W[NMeNle]D[2Nal]-NH2)	102 ± 9
CCCC[C@@H](C(=O)N[C@@H](CC(=O)O)C(=O)N[C@@H](Cc1ccccc1)C(N)=O)N(C)C(=O)[C@@H](N)Cc1c[nH]c2ccccc12 [H-Trp-(N-Me)Nle-Asp-Phe-NH2] (H-W[NMeNle]DF-NH2)	4.5 ± 0.6
CCCC[C@@H](C(=O)N[C@@H](CC(=O)O)C(=O)N[C@@H](Cc1c[nH]c2ccccc12)C(N)=O)N(C)C(=O)[C@@H](N)Cc1c[nH]c2ccccc12 [H-Trp-(N-Me)Nle-Asp-Trp-NH2] (H-W[NMeNle]DW-NH2)	18.8 ± 0.5
CCCC[C@@H](C(=O)N[C@@H](CC(=O)O)C(=O)N[C@@H](Cc1ccc(O)cc1)C(N)=O)N(C)C(=O)[C@@H](N)Cc1c[nH]c2ccccc12 [H-Trp-(N-Me)Nle-Asp-Tyr-NH2] (H-W[NMeNle]DY-NH2)	5.7 ± 0.5
CCCC[C@H](NC(=O)[C@@H](N)Cc1c[nH]c2ccccc12)C(=O)N[C@@H](CC(=O)O)C(=O)N[C@@H](Cc1cccc2ccccc12)C(N)=O [H-Trp-Nle-Asp-1-Nal-NH2] (H-W[Nle]D[1Nal]-NH2)	297 ± 16
CCCC[C@H](NC(=O)[C@@H](N)Cc1c[nH]c2ccccc12)C(=O)N[C@@H](CC(=O)O)C(=O)N[C@@H](Cc1ccccc1)C(N)=O [H-Trp-Nle-Asp-Phe-NH2] (H-W[Nle]DF-NH2)	466 ± 88

same assay, conditions: text values without printed unit; ^natLu-labeled; read-out: IC50

Compound	IC50 [nM]
CCCC[C@@H](C(=O)N[C@@H](CC(=O)O)C(=O)N[C@@H](Cc1cccc2ccccc12)C(N)=O)N(C)C(=O)[C@H](Cc1c[nH]c2ccccc12)NC(=O)CCOCCOCCOCCOCCOCCNC(=O)CN1CCN(CC(=O)O)CCN(CC(=O)O)CCN(CC(=O)O)CC1 [DOTA-CCK-50, DOTA-(PEG)4-Trp-(N-Me)Nle-Asp-1-Nal-NH2] ({DOTA-PEG5}-W[NMeNle]D[1Nal]-NH2)	8.84 ± 1.25
